Bounds are passed on as bounds.

For data set [1], the system named is H1299 human non-small cell lung cancer cells. Description: Necrosis assay by Trypan Blue exclusion, H1299. The format is cell-based. On the procedure: (§1) Necrosis Assay Cells were plated in triplicate in 96 well plates at concentrations of 500 cells per well (HT1299, MCF-7) or 1000 cells per well (H460, MRC5-hTERT) in the presence or absence of the relevant compound and assessed by Trypan Blue exclusion At 2,3,4 and 7 days after plating. To assay, cells were trypsinised off, stained with trypan blue in isotonic medium and live and dead cells separately counted visually by haemocytomter. Each data point is the mean of results from triplicate wells (Solid lines - Live cells, Broken lines - Dead Cells; Blue - Control, Red - THR53 200 μM).

The test system of data set [2] is NCI-H460 cells. Kind of data set: Mitochondrial function (alamar blue). The format is cell-based, human. To be noted: H460, 100 μM THR53, up to 96 hours, Alamar Blue. Here is the method:
Mitochondrial function (alamar blue) NCI-H460 cells were grown in Ham's F12 media supplemented with 10% FCS. Cells were harvested and added to 96-well plates at densities of 250-1000. Compounds were made up from stock solutions and added directly to cells at the concentrations indicated. Cells were grown with compound for the indicated time at 37°C, 5% CO2, in a humidified atmosphere. Alamar Blue 10% (v/v) was then added and incubated for a further 4 h, and fluorescent product detected using the BMG FLUOstar plate reader. The media only background was subtracted and the data analysed as appropriate.

Data set [3] concerns MCF-7 human breast cancer cells. Kind of data set: Necrosis assay by Trypan Blue exclusion, MCF-7. The data set is classed as cell-based. On the procedure:
as §1

The subject of data set [4] is G361 Melanoma. Kind of data set: Response of cancer cell line to 200 μM THR53 (morphology, clonogenic assay). The following applies: G361, 200 μM; morphological changes at 5 days, clonogenic assays at 15 days. The data set is classed as cell-based, human. Here is the method:
(§2) The appearances of the disintegrating colonies in Figure 4B were not dissimilar to those of "starbursts" earlier reported in human in vitro cancer cell colonies undergoing spontaneous cell death. Table 5 lists 11 cell lines with complete response to 200 μM THR53. This relatively homogeneous therapeutic response to the same critical dose of THR53 markedly contrasts with the wide range of variability of in-vitro dose response of different cancer cell lines typically seen with conventional chemotherapeutic agents In addition to showing lack of toxicity towards normal human diploid fibroblasts, THR53 and related cyclic amphiphilic PRGPRP-containing peptides were not cytotoxic to normal diploid human keratinocytes growing as primary cultures (Figure 2B) or to MRC5-hTERT immortalised fibroblasts (Figures 4A and 5A).
(§3) All cell lines were from certified sources.

Data set [5] concerns MGHU-1 Carcinoma Bladder. Described as above. The data set is classed as cell-based, human. The following applies: MGHU-1, 200 μM; morphological changes at 5 days, clonogenic assays at 15 days. On the procedure:
as §2, §3

In data set [6] the test system is H460 human non-small cell lung cancer cells. Kind of data set: Necrosis assay by Trypan Blue exclusion, H460. The data set is classed as cell-based. On the procedure:
as §1

Data set [7] has as its system normal diploid human keratinocytes. Description: Morphological cytotoxicity in primary keratinocyte cultures. The data set is classed as cell-based. The following applies: 200 μM THR53 (Figure 2B). On the procedure: as §2
Data set [8] relates to H460 cells. Kind of data set: Cell cycle phase distribution (DNA histograms). The data set is classed as cell-based, human. From the text:
(§4) Cell death, however, was not dependent on cell division in MCF-7, RT112 or H460. […] had no effect on cell cycle phase distribution in H460 cells (Figure 6B) and […] hexapeptide cancer cell killing was unrelated to endogenous levels of Cdk4 or Cyclin D1. […] A. Macroscopic appearances of cycling […]-treated MCF-7 human breast cancer cells in medium + 10% FCS (left hand panels) compared to the same cells held outside the cell cycle in medium + 0.1%FCS (right hand panel) B. […] C. Sequential Western blots of Cdk1 and Cdk4 expression in RT112 human bladder cancer cells at 0 - 10 days after exposure to 5 mM linear, end-capped, […].

Data set [9] has as its system MCF7 breast cancer cells. Kind of data set: Killing of cycling versus serum-deprived MCF-7 cells. The data set is classed as cell-based, human.
From the text: as §4

Data set [10] relates to RT112 human bladder cancer and H460 human non-small lung cancer cell lines. Kind of data set: Cell killing by cyclic amphiphilic peptides (viability and clonogenic survival). The format is cell-based.
From the text: Attempts to limit proteolysis and improve cell uptake, by incorporating the hexameric peptide sequence into cyclic peptide cassettes were undertaken, initially without success (Table 3,X-XIII). Linear constructs attaching PRGPRP to a known cell-internalising amphiphilic sequence were also unsuccessful (Table 3,XIV and 3XV). […] Selective toxicity to these cancer cell lines, and not normal fibroblasts, was retained (Table 4).
as §3

Data set [11] has as its system MRC5-hTERT immortalised fibroblasts. Description: Time lapse photomicrography, MRC5-hTERT. The format is cell-based, human. The following applies: 200 μM; except for some generalised slowing of growth. Here is the method: Progressive morphological changes in dying H460 cells exposed to 200 μM THR53 [additional file 1], contrasted with progressive cell division in untreated H460 cells [additional file 2] are shown as videos. Immortalised MRC5-hTERT fibroblasts, were unaffected by exposure to 200 μM THR53 except for some generalised slowing of growth (Figure 5A), [additional file 3] as compared to control, untreated, MRC5-hTERT cells [additional file 4]. RT112 cells were more sensitive to THR53 than H460 cells and died within 30 - 40 hours as compared to 96 hours for H460 and the majority of other human cancer cell lines investigated.
Figure 5 Time Lapse Photomicrography of MRC5-hTERT, RT112 human bladder cancer and […] human non-small cell lung cancer following exposure toTHR53. Cells were incubated in Ham's F12 + 10% FCS (control medium) or medium + 200 μM THR53. Morphological changes of vacuolation + cellar swelling are seen in RT112 at 33 hours after exposure to THR53 and in H460 at 90 hours after exposure to THR53. There was no evidence of cell blebbing or fragmentation. (see also videos)

Data set [12] concerns H460 human non-small cell lung cancer cells. Kind of data set: H460 cell killing at the dose chosen for assay comparison. To be noted: 100 μM, by 96 hours. The data set is classed as cell-based. On the procedure:
In order to probe the mechanism of PRGPRP analogue induced cell death, three assays were conducted on H460 human non-small cell lung cancer cells over a period of 96 hours following exposure to THR53 (Figure 7A). Total cellular protein was measured by sulphorhodamine B [31], mitochondrial oxidation/reduction was measured by Alamar Blue assay and cellular ATP level was measured by luciferase activity. A dose of 100 μM THR53 at which 50% of H460 cells were killed by 96 hours was chosen for assay comparison. […] An assay for autophagy was thus carried out which utilises a proprietary reagent (Cyto-ID Green) that specifically labels autophagolysosomes, co-localising with LC3, a specific autophagosome marker. 25 μM Chloroquine was used as a positive control agent known to induce autophagy. […] However, no difference in the mean fluorescent intensity was seen following treatment with 100 μM THR53 at either 72 h or 96 h, when compared with control.

In the case of “Cyc-[FPPRGPRPVKLALKLALK] (head to tail) [THR53, cyclic amphiphilic analogue, Cyc-[…]]”, the “day at which necrotic cells are initially detectable” value in data set [1] (H1299, 200 μM) is 3 days; in data set [3] (MCF-7, 200 μM) it was 3 days; in data set [6] (H460, 200 μM) it was 3 days. Further, the “necrosis detected by trypan blue uptake” value in data set [1] (H1299, 200 μM, 2, 3, 4 and 7 days after plating, triplicate wells) is recorded as “induces necrosis”; in [3] (MCF-7, 200 μM, 2, 3, 4 and 7 days after plating, triplicate wells), “induces necrosis”; in data set [6] (H460, 200 μM, 2, 3, 4 and 7 days after plating, triplicate wells), “induces necrosis”. The mitochondrial oxidation/reduction entry in data set [2] is recorded as “without change”. Moreover, the “response to THR53” value in data set [4] and in data set [5] was “total cell death” throughout. The “cytotoxicity to normal diploid human keratinocytes” value in [7] is recorded as “not cytotoxic”. For the same substance, the “effect on cell cycle phase distribution” value in data set [8] is recorded as “no effect”. In addition, the “effect on serum-deprived MCF7 cells” value in [9] (medium + 0.1%FCS, cells held outside the cell cycle) is recorded as “no effect”. In addition, the “effect on cycling MCF-7 cells” value in [9] (medium +10% FCS) is given as “killed”. In data set [10] (cyclic amphiphilic cassettes compared with the earlier PRGPRP peptides), the “improvement in selective cancer cell cytotoxicity” value is listed as “fifty- to a hundred-fold improvement”. Besides, the “time at which cell killing reached a maximum” value in data set [10] (for the majority of cell lines) is not above 4 days. Moreover, in data set [11], the “effect on MRC5-hTERT fibroblasts, time lapse” value is reported as “unaffected”. In [12], the H460 cells killed is recorded as 50%.
